2 compounds from PMC11096368, “Transcriptomic signature, bioactivity and safety of a non-hepatotoxic analgesic generating AM404 in the midbrain PAG region” (Scientific Reports, 2024) can be followed below.

Read-outs that look alike come from different tables or passages of the source.

What all share (type): in vivo
The test system of one data set is male CD1 mice. Put plainly: Baker yeast-induced hyperthermia antipyresis assay. The conditions noted are these: 75 mg/kg per os, n = 10. How it is done:
Antipyresis experiments were carried out with n = 60 CD-1 male mice weighing between 45 and 50 g. All mice were kept in a 12-h day/12-h night cycle with free access to food and water ad libitum. After habituating and acclimating the mice for a week, each mouse was briefly anesthetized for 1 min with 1% isoflurane and implanted subcutaneously a transmitter probe that records core body temperature – Implantable Programmable Temperature Transponder (IPTT-300) by Bio Medic Data Systems (BMDS), DE, USA. The mice were allowed to recover for at least one week from the surgery before any recordings were made and observed in their home cages prior to pyrogen challenge for inducing fever. Temperatures were recorded using the BMDS DAS-8027-IUS data reading system.
15% yeast, 0.1 mL/kg (MilliporeSigma, Billerica, MA, USA) was used to induce fever. All animals used in this assay were male CD1 mice, which were fasted overnight (15 h) before the start of the assay.
Mice received either yeast in 0.9% saline (sterile) (vehicle) or just 0.9% saline as an ip injection. […] All mice that didn’t show a significant change in body temperature or appeared sick post-pyrogen challenge were excluded (n = 5) from subsequent drug administrations.
All drugs and vehicle (10% DMSO: 10% labrasol :80% PEG400) were administered by oral gavage, PO administration. Each dosing volume was ~ 0.3–0.4 mL per mouse. […]

In the next data set the test system is CD1 or C57BL/6 mice. In words: Cold stimulation tail flick somatic pain assay. The conditions noted are these: for ED50: Mus musculus, equimolar dosing; for Analgesia in cold tail-flick assay: high dose (100 mg/kg), all experimental cohorts. The text has this: (§1) The investigators were blinded till the completion of all the experiments. To ensure objectivity, investigators were blinded for the acetic acid and tail flick experiments. In the CFA/von Frey and Hargreaves assays, one investigator did the drug pre-treatments, and another investigator at another location who was not aware of the treatments conducted the behavioral testing. Moreover, these studies used the eVF device that electronically registers the grams of force necessary to elicit paw withdrawal, eliminating bias that confounded older versions of this test in which an investigator used a series of individual von Frey microfilaments to determine paw withdrawal thresholds. Six separate experimenters were involved in the data acquisition for behavioral testing, and another separate investigator performed all the statistical analyses using GraphPad Prism Version 9.1.2. Statistical significance was determined by p < 0.05; one-way ANOVA followed by Sidak’s multiple comparisons post hoc test. Mixed-gender experiments were powered to test for gender effects, and different ages of rodents were also included for the experiments – young (2 months) and aged (20 months) to tease out whether there are any effects of age-related changes in nociceptive sensitivity under naïve, and inflammatory pre-clinical rodent pain models. For the aged rats and mice, we could only obtain male Sprague–Dawley rats and male C57BL/6 mice of 20 months old from all commercial animal vendors and from the National Institute of Aging (NIA). So, only these rodents were used for the older animal experimental cohort. Old female rats and mice were not available at the time when these experiments were conducted. For ED50 calculation, dose–response curves were calculated with regression analysis and log transformation using GraphPad Prism 9.1.2.
Half of the tail was immersed in ice-cold water maintained at 4 °C. For the tail-flick assays, we used n = 70 aged male mice, n = 90 young male mice, and n = 120 young female mice. Based on the availability of mice at the time of the experiments, different numbers of animals were assigned to different cohorts of experimental animals. Tail flick assay experiments were conducted on an open bench in a dedicated room at the LSUHSC New Orleans Neuroscience Center of Excellence vivarium. Mice were allowed to acclimate to the laboratory environment for 1 h prior to testing. To restrain the mice for the test, disposable plastic 50 mL screw-capped conical centrifuge tubes were cut at the tip to create a 0.5 cm opening to allow the mice to breathe freely. Another 0.5 cm opening was cut into the cap to allow access of the tail to the water bath. A 500 mL glass beaker was filled with 450 mL of ice-cold distilled water maintained at 4 °C with the addition of ice and determined with a glass thermometer. Mice were held over the opening of the water bath, and their tails submerged approximately halfway into the water. The nociceptive threshold was taken as the latency until the mice flicked their tail tip or removed the tail. The time from immersion to the attempted tail tip removal was measured to 1/10th of a sec with a digital laboratory timer. To minimize damage to the tail, a 60-s cut-off was utilized. […] Injections were at doses of 32 mg/kg and 100 mg/kg. 30 min post-drug administration tail-flick/withdrawal latency was measured.

The subject of the next data set is Sprague–Dawley rats. Put plainly: CFA inflammatory pain / von Frey with electronic detection (eVF). The conditions noted are these: for Threshold for paw withdrawal, CFA-injected paw: young male rats, 18 g after CFA; for ED50: Rattus norvegicus, equimolar dosing; for Threshold for paw withdrawal, CFA-injected left hind paw: young female and aged male rats (Supplementary Fig. 3), from 25 g.
Description: as §1
In this model of mechanonociception, one hind paw at a time is stimulated with an electronic von Frey (eVF) filament (noxious source) until the animal retracts the paw from the mechanical stimulus. von Frey tests were conducted in a dedicated room at the LSUHSC New Orleans Neuroscience Center of Excellence vivarium. Rats were acclimated to their environment for 2 days for 30 min/day prior to testing. To obtain eVF pressure recordings, each animal was placed in an individual plastic observation compartment on a perforated metallic grid platform, which provided access to the plantar surface of the hind paws. After acclimation to the environment for 30 min, mechanical hypersensitivity was assessed by stimulating the mid-plantar area of each hind paw with a rigid tip von Frey filament attached to the eVF meter (Ugo Basile 38,450) until animals withdrew the paw from the filament. The withdrawal threshold was defined as the average force/pressure (g) required for the rat to withdraw the stimulated paw. A brisk withdrawal of the paw (often followed by a sustained retraction and/or licking) was considered a positive response, but paw withdrawals due to locomotion or weight shifting were not counted. The von Frey studies were conducted with an eVF device that electronically registers the grams of force necessary to elicit paw withdrawal in order to eliminate bias that confounded previous older versions of this test. Baseline withdrawal thresholds of both the right and left paws were recorded, and animals were assigned to different treatment groups so that each group had approximately equal withdrawal threshold averages in both paws. After baseline testing, treated animals received subcutaneous plantar injection (150 μl) of 50% CFA diluted and freshly mixed in sterile (0.9%) saline into the left hind paw unilaterally, while control animals received a plantar injection (150 µl) of 0.9% NaCl into their left hind paw. CFA induces inflammation, resulting in a left hind paw that is hypersensitive to mechanical stimulus, while the right hind paw serves as a within-subject baseline for each animal. […]

The test system of a further data set is liver of CD1 mice. Put plainly: Hepatotoxicity at 600 mg/kg: nitrotyrosine, ZO-1 tight junctions, TUNEL, liver function tests. The conditions noted are these: 15 out of 20 ApAP treated animals; data not shown.
[1] abbreviates: read-out: ED50 Tail Flick Assay (Mice), Aged (Male).
Where [2] appears, read: read-out: ED50 Tail Flick Assay (Mice), Young (Female).
Setting [3] is: read-out: ED50 Tail Flick Assay (Mice), Young (Male).
The mark [4] stands for this setting: 100 mg/kg PO (cumulative dosing).
Setting [5] is: read-out: ED50 von-Frey Assay (Rats), Aged (Male).
[6] abbreviates: read-out: ED50 von-Frey Assay (Rats), Young (Female).
Where [7] appears, read: read-out: ED50 von-Frey Assay (Rats), Young (Male).

Description for liver of CD1 mice: Male CD1 mice were fasted overnight for 15 h and dosed with ApAP or SRP-001 or vehicle (0.9% saline) at doses of 600 mg/kg administered via per os (PO) injections with an administration volume of 10 mL/kg body weight. After drug administration, animals were returned to their respective cages and maintained with food and water provided ad libitum for the next 12 h. Animals were then euthanized under 5% isoflurane anesthesia after 12 h, and whole blood samples were collected transcardially in sterile microcentrifuge tubes without anti-coagulants. […]
At 12 h post-injection, mice were deeply anesthetized under 5% isoflurane for more than 5 min and formalin-fixed via transcardial perfusion with 10% Neutral Buffered Formalin (NBF) after exsanguination using 0.9% NaCl. […] Nitrotyrosine labeling was detected with 3′3’-Diaminobenzidine (DAB) staining, and nitrotyrosine labeled hepatic sections were imaged at 100 × magnification in brightfield using a Nikon Eclipse TS100 microscope with NIS-Elements BR 3.0 software (NIKON Inc, Melville, NY, USA). […] Quantification of ZO-1 staining hepatic tight junctions was carried out by unbiassed image analysis calculating area sum of pixel[2] of the green channel staining ZO-1using CellSens software (Olympus Corp Center Valley, PA, USA).

Turning to `CC(=O)Nc1ccc(O)cc1` [ApAP, acetaminophen, reference compound], in the data set with male CD1 mice, the “Antipyresis, yeast fever (core body temperature)” value was “subsequent reduction in core body temperature”. For the same compound, the ED50 in the data set with CD1 or C57BL/6 mice (setting [1]) came out at 281 µmol/kg; with CD1 or C57BL/6 mice (setting [2]), 70.3 µmol/kg; with CD1 or C57BL/6 mice (setting [3]) it was 71.8 µmol/kg; with Sprague–Dawley rats (setting [5]) it was 358 µmol/kg; in the data set with Sprague–Dawley rats (setting [6]) it was 292 µmol/kg; in the data set on Sprague–Dawley rats (setting [7]), 574 µmol/kg. In the data set on CD1 or C57BL/6 mice, the “Analgesia in cold tail-flick assay” value is given as “significant analgesia”. In addition, the “Threshold for paw withdrawal, CFA-injected paw” value came out at 34 g in the data set on Sprague–Dawley rats (32 mg/kg PO) and 50 g in the data set on Sprague–Dawley rats (setting [4]). For the same compound, the “Animals dead in 48 h” value in the data set with liver of CD1 mice is 75%.
In the case of `CCN(CC)C(=O)c1ccccc1S(=O)(=O)NCC(=O)Nc1ccc(O)cc1` [SRP-001, N,N-diethyl-2-[[2-(4-hydroxyanilino)-2-oxo-ethyl]sulfamoyl]benzamide], the “Antipyresis, yeast fever (core body temperature)” value in the data set with male CD1 mice is “subsequent reduction in core body temperature”. The median effective dose (ED50) in the data set with CD1 or C57BL/6 mice (setting [1]) worked out at 81.6 µmol/kg; in the data set with CD1 or C57BL/6 mice (setting [2]), 44.9 µmol/kg; with CD1 or C57BL/6 mice (setting [3]), 60 µmol/kg; in the data set with Sprague–Dawley rats (setting [5]), 454 µmol/kg; in the data set with Sprague–Dawley rats (setting [6]), 121 µmol/kg; in the data set on Sprague–Dawley rats (setting [7]), 190 µmol/kg. The “Analgesia in cold tail-flick assay” value in the data set with CD1 or C57BL/6 mice was “significant analgesia”. For the same compound, the “Threshold for paw withdrawal, CFA-injected paw” value in the data set with Sprague–Dawley rats (32 mg/kg PO) was determined as 40 g; in the data set with Sprague–Dawley rats (setting [4]) it was 55 g. Moreover, the “Threshold for paw withdrawal, CFA-injected left hind paw” value in the data set on Sprague–Dawley rats (32 mg/kg) was 32 g; in the data set on Sprague–Dawley rats (100 mg/kg), 40 g. Further, the “Animals dead in 48 h” value in the data set on liver of CD1 mice was “none”.
